Measured values reported in patent publication US12139520B2 (priority 2020, dated 2024).
Bridge positions count the residues as written; N and C are the ends. Square brackets hold non-standard residues; d marks the D form. Peptide text beside a SMILES is read from it. Hyp = O=C(O)[C@@H]1C[C@@H](O)CN1; Cit = NC(=O)NCCC[C@H](N)C(=O)O

Legend:
hAMY3 receptor = target: T1, hAMY3 receptor (Homo sapiens, UniProt O60896+P30988); assay: cAMP assay for in vitro receptor activation, hAMY3-R; type: cell-based; conditions: cAMP assay, hAMY3 receptor; read-out: hAMY3R EC50
T1 sequence (P30988 25-474): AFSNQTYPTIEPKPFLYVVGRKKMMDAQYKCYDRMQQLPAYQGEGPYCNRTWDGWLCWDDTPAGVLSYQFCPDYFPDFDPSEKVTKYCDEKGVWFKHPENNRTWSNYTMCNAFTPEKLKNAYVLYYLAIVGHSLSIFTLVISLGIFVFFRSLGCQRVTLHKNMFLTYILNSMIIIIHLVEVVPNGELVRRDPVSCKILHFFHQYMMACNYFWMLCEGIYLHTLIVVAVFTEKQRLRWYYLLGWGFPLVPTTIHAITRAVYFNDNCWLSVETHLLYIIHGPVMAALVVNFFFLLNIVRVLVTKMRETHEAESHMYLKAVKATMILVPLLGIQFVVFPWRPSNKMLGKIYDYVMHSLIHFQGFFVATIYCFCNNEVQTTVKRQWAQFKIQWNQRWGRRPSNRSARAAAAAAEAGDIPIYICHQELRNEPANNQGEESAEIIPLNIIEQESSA
T1 sequence (O60896 24-148 partner): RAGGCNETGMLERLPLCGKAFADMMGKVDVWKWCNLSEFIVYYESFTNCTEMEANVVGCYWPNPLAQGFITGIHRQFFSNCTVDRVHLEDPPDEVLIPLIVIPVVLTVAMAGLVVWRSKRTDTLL
Procedure, shortened: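 Receptor activation was measured as cAMP accumulation in a monoclonal cell line stably overexpressing hAMY3. Stimulation with graded doses lasted 30 min at room temperature in the presence of 0.5 mM IBMX, with human amylin as positive control.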

hAM1 receptor = hAM1 receptor (Homo sapiens, UniProt O60895+Q16602); assay: cAMP assay for in vitro receptor activation, hAM1-R; type: cell-based; conditions: cAMP assay, hAM1 receptor; read-out: hAM1R EC50
Procedure, shortened: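 Read-out is intracellular cAMP as a measure of receptor activation. Cells stably overexpressing hAM1 were subcloned to a monoclonal line, then thawed and seeded at 8000 cells/well in DPBS with 0.05% casein and the phosphodiesterase inhibitor IBMX at 0.5 mM.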

[1] = Physical stability of peptide analogues (Thioflavin T fibrillation); type: physicochemical; conditions: maximum ThT signal normalized between hAMY maximum and buffer background; 40° C., shaking, four days; pH 7 per table title
Procedure, shortened: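 1 h in 50 mM NaOAc pH 4 / 50 mM NaPi pH 7; + ThT 4 μM final; 40 °C, 700 rpm linear shake 5 min pre-read; ex 450, em 480 nm q10 min × 4 d; LOESS smoothing; max signal normalised to hAMY max vs buffer blank.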

Chain of hAM1 receptor (Q16602 23-461): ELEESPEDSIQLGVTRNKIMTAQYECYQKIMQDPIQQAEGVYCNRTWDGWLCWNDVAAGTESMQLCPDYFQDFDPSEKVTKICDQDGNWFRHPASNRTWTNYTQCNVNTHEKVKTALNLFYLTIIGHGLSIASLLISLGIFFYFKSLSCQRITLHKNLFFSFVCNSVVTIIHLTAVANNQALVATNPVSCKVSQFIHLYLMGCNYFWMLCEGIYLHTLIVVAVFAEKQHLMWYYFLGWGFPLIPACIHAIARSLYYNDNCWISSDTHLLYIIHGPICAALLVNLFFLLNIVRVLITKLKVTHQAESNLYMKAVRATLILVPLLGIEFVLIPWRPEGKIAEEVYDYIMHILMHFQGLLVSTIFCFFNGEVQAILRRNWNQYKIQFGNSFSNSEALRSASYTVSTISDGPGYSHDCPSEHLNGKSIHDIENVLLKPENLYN
Chain of hAM1 receptor (O60895 43-175 partner): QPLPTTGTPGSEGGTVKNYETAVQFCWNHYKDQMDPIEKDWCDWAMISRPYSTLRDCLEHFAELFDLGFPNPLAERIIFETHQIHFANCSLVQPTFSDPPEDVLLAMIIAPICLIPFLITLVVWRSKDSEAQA

EC50 (hAMY3 receptor) [nM]	EC50 (hAM1 receptor) [µM]	Max ThT signal (%) [1] [%]	SMILES
0.008	> 5	6.800	CC[C@H](C)[C@H](NC(=O)[C@H](CCC(N)=O)NC(=O)[C@H](Cc1c[nH]cn1)NC(=O)[C@H](C)NC(=O)[C@H](CC(C)C)NC(=O)[C@H](CCCNC(=N)N)NC(=O)[C@H](CCC(N)=O)NC(=O)[C@@H](NC(=O)[C@@H](NC(=O)[C@@H]1CSSC[C@H](NC(=O)[C@@H](N)CCCCN)C(=O)N[C@@H](CC(N)=O)C(=O)N[C@@H]([C@@H](C)O)C(=O)N[C@@H](C)C(=O)N[C@@H]([C@@H](C)O)C(=O)N1)[C@@H](C)O)C(C)C)C(=O)N[C@@H](Cc1ccc(O)cc1)C(=O)N[C@@H](CCC(N)=O)C(=O)N[C@@H](Cc1ccccc1)C(=O)N[C@H](C(=O)N[C@@H](C)C(=O)N[C@@H](CCCCN)C(=O)N[C@@H](CC(=O)O)C(=O)N[C@@H](CCCCN)C(=O)N[C@@H](CC(=O)O)C(=O)N[C@@H](CC(N)=O)C(=O)N[C@H](C(=O)N[C@@H](C)C(=O)N1CCC[C@H]1C(=O)N1CCC[C@H]1C(=O)N[C@H](C(=O)N[C@@H](CC(N)=O)C(=O)N[C@H](C(=O)NCC(=O)N[C@@H](CO)C(=O)N[C@@H](CC(N)=O)C(=O)NCC(=O)N1C[C@H](O)C[C@H]1C(N)=O)C(C)C)[C@@H](C)O)C(C)C)[C@@H](C)O [compound 24] (H-KCNTATCTVQRLAHQIYQFTAKDKDNVAPPTNVGSNG[Hyp]-NH2; disulfide 2-7; N-terminus assumed)
0.082	> 5	8.800	CC[C@H](C)[C@H](NC(=O)[C@H](CCC(N)=O)NC(=O)[C@H](Cc1c[nH]cn1)NC(=O)[C@H](C)NC(=O)[C@H](CC(C)C)NC(=O)[C@H](CCCNC(=N)N)NC(=O)[C@H](CCC(N)=O)NC(=O)[C@@H](NC(=O)[C@@H](NC(=O)[C@@H]1CSSC[C@H](NC(=O)[C@@H](N)CCCCN)C(=O)N[C@@H](CC(N)=O)C(=O)N[C@@H]([C@@H](C)O)C(=O)N[C@@H](C)C(=O)N[C@@H]([C@@H](C)O)C(=O)N1)[C@@H](C)O)C(C)C)C(=O)N[C@@H](Cc1ccc(O)cc1)C(=O)N[C@@H](Cc1ccccc1)C(=O)N[C@H](C(=O)N[C@@H](CC(=O)O)C(=O)N[C@@H](CCCCN)C(=O)N[C@@H](CC(=O)O)C(=O)N[C@@H](CCCCN)C(=O)N[C@@H](CC(=O)O)C(=O)N[C@@H](CC(N)=O)C(=O)N[C@H](C(=O)N[C@@H](C)C(=O)N1CCC[C@H]1C(=O)N1CCC[C@H]1C(=O)N[C@H](C(=O)N[C@@H](CC(N)=O)C(=O)N[C@H](C(=O)NCC(=O)N[C@@H](CO)C(=O)N[C@@H](CC(N)=O)C(=O)NCC(=O)N1C[C@H](O)C[C@H]1C(N)=O)C(C)C)[C@@H](C)O)C(C)C)[C@@H](C)O [compound 181] (H-KCNTATCTVQRLAHQIYFTDKDKDNVAPPTNVGSNG[Hyp]-NH2; disulfide 2-7; N-terminus assumed)
0.236	0.107	25.700	CC[C@H](C)[C@H](NC(=O)[C@H](CCC(N)=O)NC(=O)[C@H](CCC(=O)O)NC(=O)[C@H](C)NC(=O)[C@H](CC(C)C)NC(=O)[C@H](Cc1c[nH]c2ccccc12)NC(=O)[C@H](CCC(N)=O)NC(=O)[C@@H](NC(=O)[C@@H](NC(=O)[C@@H]1CSSC[C@H](NC(=O)[C@@H](N)CCCCN)C(=O)N[C@@H](CC(N)=O)C(=O)N[C@@H](C)C(=O)N[C@@H](C)C(=O)N[C@@H]([C@@H](C)O)C(=O)N1)[C@@H](C)O)C(C)C)C(=O)N[C@@H](Cc1ccc(O)cc1)C(=O)N[C@@H](CCC(N)=O)C(=O)N[C@@H](Cc1ccccc1)C(=O)N[C@H](C(=O)N[C@@H](CC(=O)O)C(=O)N[C@@H](CCCCN)C(=O)N[C@@H](CC(=O)O)C(=O)N[C@@H](CCCCN)C(=O)N[C@@H](CC(=O)O)C(=O)N[C@@H](CC(N)=O)C(=O)N[C@H](C(=O)N[C@@H](C)C(=O)N1CCC[C@H]1C(=O)N1CCC[C@H]1C(=O)N[C@H](C(=O)N[C@@H](CC(N)=O)C(=O)N[C@H](C(=O)NCC(=O)N[C@@H](CO)C(=O)N[C@@H](CC(N)=O)C(=O)NCC(=O)N1C[C@H](O)C[C@H]1C(N)=O)C(C)C)[C@@H](C)O)C(C)C)[C@@H](C)O [compound 333] (H-KCNAATCTVQWLAEQIYQFTDKDKDNVAPPTNVGSNG[Hyp]-NH2; disulfide 2-7; N-terminus assumed)
0.007	> 5	5.000	CC[C@H](C)[C@H](NC(=O)[C@H](C)NC(=O)[C@H](Cc1c[nH]cn1)NC(=O)[C@H](C)NC(=O)[C@H](CC(C)C)NC(=O)[C@H](CCCNC(=N)N)NC(=O)[C@H](CCC(N)=O)NC(=O)[C@@H](NC(=O)[C@@H](NC(=O)[C@@H]1CSSC[C@H](NC(=O)[C@@H](N)CCCCN)C(=O)N[C@@H](CC(N)=O)C(=O)N[C@@H]([C@@H](C)O)C(=O)N[C@@H](C)C(=O)N[C@@H]([C@@H](C)O)C(=O)N1)[C@@H](C)O)C(C)C)C(=O)N[C@@H](Cc1ccc(O)cc1)C(=O)N[C@@H](CCC(N)=O)C(=O)N[C@@H](Cc1ccccc1)C(=O)N[C@H](C(=O)N[C@@H](CC(=O)O)C(=O)N[C@@H](CCCCN)C(=O)N[C@@H](CC(=O)O)C(=O)N[C@@H](CCCCN)C(=O)N[C@@H](CC(=O)O)C(=O)N[C@@H](CC(N)=O)C(=O)N[C@H](C(=O)N[C@@H](C)C(=O)N1CCC[C@H]1C(=O)N1CCC[C@H]1C(=O)N[C@H](C(=O)N[C@@H](CC(N)=O)C(=O)N[C@H](C(=O)NCC(=O)N[C@@H](CO)C(=O)N[C@@H](CC(N)=O)C(=O)NCC(=O)N1C[C@H](O)C[C@H]1C(N)=O)C(C)C)[C@@H](C)O)C(C)C)[C@@H](C)O [compound 13] (H-KCNTATCTVQRLAHAIYQFTDKDKDNVAPPTNVGSNG[Hyp]-NH2; disulfide 2-7; N-terminus assumed)
0.014	> 5	8.850	CC[C@H](C)[C@H](NC(=O)[C@H](CCC(N)=O)NC(=O)[C@H](Cc1c[nH]cn1)NC(=O)[C@H](C)NC(=O)[C@H](CC(C)C)NC(=O)[C@H](CCCNC(N)=O)NC(=O)[C@H](CCC(N)=O)NC(=O)[C@@H](NC(=O)[C@@H](NC(=O)[C@@H]1CSSC[C@H](NC(=O)[C@@H](N)CCCCN)C(=O)N[C@@H](CC(N)=O)C(=O)N[C@@H]([C@@H](C)O)C(=O)N[C@@H](C)C(=O)N[C@@H]([C@@H](C)O)C(=O)N1)[C@@H](C)O)C(C)C)C(=O)N[C@@H](Cc1ccc(O)cc1)C(=O)N[C@@H](CCC(N)=O)C(=O)N[C@@H](Cc1ccccc1)C(=O)N[C@H](C(=O)N[C@@H](CC(=O)O)C(=O)N[C@@H](CCCCN)C(=O)N[C@@H](CC(=O)O)C(=O)N[C@@H](CCCCN)C(=O)N[C@@H](CC(=O)O)C(=O)N[C@@H](CC(N)=O)C(=O)N[C@H](C(=O)N[C@@H](C)C(=O)N1CCC[C@H]1C(=O)N1CCC[C@H]1C(=O)N[C@H](C(=O)N[C@@H](CC(N)=O)C(=O)N[C@H](C(=O)NCC(=O)N[C@@H](CO)C(=O)N[C@@H](CC(N)=O)C(=O)NCC(=O)N1C[C@H](O)C[C@H]1C(N)=O)C(C)C)[C@@H](C)O)C(C)C)[C@@H](C)O [compound 268] (H-KCNTATCTVQ[Cit]LAHQIYQFTDKDKDNVAPPTNVGSNG[Hyp]-NH2; disulfide 2-7; N-terminus assumed)
0.014	> 5	14.500	CC[C@H](C)[C@H](NC(=O)[C@H](C)NC(=O)[C@H](Cc1c[nH]cn1)NC(=O)[C@H](C)NC(=O)[C@H](CC(C)C)NC(=O)[C@H](Cc1c[nH]c2ccccc12)NC(=O)[C@H](CCC(N)=O)NC(=O)[C@@H](NC(=O)[C@@H](NC(=O)[C@@H]1CSSC[C@H](NC(=O)[C@@H](N)CCCCN)C(=O)N[C@@H](CC(N)=O)C(=O)N[C@@H]([C@@H](C)O)C(=O)N[C@@H](C)C(=O)N[C@@H]([C@@H](C)O)C(=O)N1)[C@@H](C)O)C(C)C)C(=O)N[C@@H](Cc1ccc(O)cc1)C(=O)N[C@@H](CCC(N)=O)C(=O)N[C@@H](Cc1ccccc1)C(=O)N[C@H](C(=O)N[C@@H](CC(=O)O)C(=O)N[C@@H](CCCCN)C(=O)N[C@@H](CC(=O)O)C(=O)N[C@@H](CCCCN)C(=O)N[C@@H](CC(=O)O)C(=O)N[C@@H](CC(N)=O)C(=O)N[C@H](C(=O)N[C@@H](C)C(=O)N1CCC[C@H]1C(=O)N1CCC[C@H]1C(=O)N[C@H](C(=O)N[C@@H](CC(N)=O)C(=O)N[C@H](C(=O)NCC(=O)N[C@@H](CO)C(=O)N[C@@H](CC(N)=O)C(=O)NCC(=O)N1C[C@H](O)C[C@H]1C(N)=O)C(C)C)[C@@H](C)O)C(C)C)[C@@H](C)O [compound 308] (H-KCNTATCTVQWLAHAIYQFTDKDKDNVAPPTNVGSNG[Hyp]-NH2; disulfide 2-7; N-terminus assumed)
